Data as given in patent US20080113908A1, “Use of CRF receptor agonists for the treatment or Prophylaxis of diseases, for example Neurodegenerative diseases” (SmithKline Beecham plc, priority 2000, published 2008).

Experiments:
hippocampal neurones = assay: Amyloid-β peptide (25-35) toxicity, survival by counting viable neurons (FIGS. 8, 9); format: cell-based; settings: Aβ(25-35) 10 μM, CRF 3-100 nM, 3 days
Procedure: In order to test whether CRF receptor agonists protect neurones from death caused by Aβ, the following experiment was conducted (FIGS. 8 and 9). Hippocampal neurons from embryonic day 18 rat were cultured in serum-free medium (neurobasal/B27) for 9 days. The culture methods are described on page 48 of S. D. Skaper et al., J. Neurochem., 2001, 76, 47-55. Cells were then treated with amyloid-β peptide (fragment 25-35) (Sigma, cat. no. A-4559, sequence Gly-Ser-Asn-Lys-Gly-Ala-Ile-Ile-Gly-Leu-Met) at 10 μM plus the indicated CRF receptor agonist at the indicated concentration, in the same culture medium. […] Cell survival was assessed after 3 days, by fixing the cultures and counting microscopically viable neurons. Values are expressed relative to numbers of surviving neurons in untreated cultures (=100).

GSK-3β = assay: Western blot of serine-9-phosphorylated GSK-3β (FIG. 5); format: cell-based, rat; settings: compound alone, 2 hours; CRF 10 nM, LY 294002 75 μM, FSK 30 μM
From the text: It was thought that CRF receptor agonists might interact with the PI 3-kinase signalling pathway and exert their neuroprotective effect by phosphorylating and inhibiting the protein GSK-3β,which is pro-apoptotic (M. Pap and G. M. Cooper, J. Biol. Chem., 273(32), 19929-19932, 1998; and M. Hetman et al. J. Neurosci., 1st Apr. 2000, 20(7), 2567-2574; discussed hereinabove). In order to confirm this, the level of GSK-3β phosphorylated at serine-9 (e.g. see D. A. E. Cross, Nature, 378, 785-789, 1995) in control cultures of cerebellar granule neurones was measured using Western blots, and compared to the level of phospho-GSK-3β in the presence of CRF as a model CRF receptor agonist and/or in the presence of the PI 3-kinase inhibitor LY 294002. In order to determine whether elevation of cAMP was involved in any effect, the level of phospho-GSK-3β in cultures in the presence of the known cAMP-elevating agent forskolin (FSK, obtainable e.g. from Calbiochem.) with or without LY 294002 present was also measured. The forskolin acts as a benchmark for cAMP-related effects.
The method used was as follows. […]
Phosphorylation of GSK-3β was detected using an antibody to serine-9-phosphorylated GSK-3β (anti-phospho-GSK-3β (Ser9)) available as catalogue no. […]

[1] = tested on: cerebellar granule neurons; assay: Delayed addition of CRF after LY 294002, variation of Assay 1 (FIGS. 6A, 6B); format: cell-based, rat
Procedure: FIGS. 6A and 6B show neuronal survival results, using a variation of Assay 1 in which CRF (10 nM) was added at varying times (shown in hours) following LY 294002 (75 μM) addition. Therefore, granule neurons were cultured with the PI 3-kinase inhibitor LY 294002 (75 μM) in the presence of 10 nM CRF, added together with LY 294002 or at different times (shown in hours) following LY 294002 addition. FIG. 6A is the result from one experiment only. […] It appears from FIG. 6A that the neuroprotective effect is sustained when adding CRF at about 1-4 hrs after LY 294002 addition. From FIG. 6B, it appears that the neuroprotective effect is sustained when adding CRF up to 8 hours after LY 294002 addition.

H-SQEPPISLDLTFHLLREVLEMTKADQLAQQAHNNRKLLDIA-NH2 [CRF]
neuroprotective effect against Aβ toxicity (FIG. 8) (hippocampal neurones): 40-50%
phospho-GSK-3β level compared to control CN (GSK-3β): increase in basal phospho-GSK-3β
neuroprotective effect with delayed CRF addition ([1]; CRF 10 nM added 10, 24 and 32 hours after LY 294002 75 μM): Only a small neuroprotective effect
neuroprotective effect with delayed CRF addition ([1]; CRF 10 nM added 46 hours after LY 294002 75 μM): no neuroprotection
time of CRF addition after LY 294002 at which neuroprotective effect is sustained (FIG. 6A) ([1]; CRF 10 nM, LY 294002 75 μM, one experiment): 1 to 4 h
time of CRF addition after LY 294002 at which neuroprotective effect is sustained (FIG. 6B) ([1]; CRF 10 nM, LY 294002 75 μM, two experiments combined): up to 8 hours
